According to ChEMBL document CHEMBL3507680, “University of Dundee, Gates Library screen for HepG2 cell viability”:

assay: Human HepG2 cell viability assay in 384 well format; format: toxicity, cell-based; set-up: dose 125 nL, time 70.5 hour; concentration not given beside the values; conditions: HepG2 cells, read-out: Inhibition

| Compound | cytotoxicity at 70.5 h [%] |
| --- | --- |
| CCOCC(O)CN1CCN(C(=O)c2ccc(C)nc2)CC1 (stereo not given) | 0.688 |
| COc1c(C)cnc(CN2CCC(N(C)C(=O)C(C)OC)CC2)c1C (stereo not given) | 7.6 |
| CCN(CC)CCN(C)c1nc(-c2ccc(Cl)cc2)nc2c1CNC2 | 20.6 |
| N#Cc1ccc(OC[C@]23COC[C@H]2CN(Cc2ccccn2)C3)nc1 | 0.477 |
| CC(C)Oc1cccc(CNC(=O)NC2(CO)CCCC2)c1 | -11.2 |
| Cn1nc(C2CCN(CC(=O)NC3CC3)CC2)n(-c2ccccc2)c1=O | -8.96 |
| c1nc(N2CCc3nc[nH]c3C2)c2cc[nH]c2n1 | 2.38 |
| COCCN1CCO[C@@H]2CN(C(=O)Cc3ccccc3)CC[C@@H]2C1 | -0.0515 |
| c1csc(CN2Cc3nc(CN4CCCC4)oc3C2)c1 | -1.36 |
| Cc1nc(CN2CCCC(NCCCc3ccccc3)C2)no1 (stereo not given) | -10.6 |
| CCn1c(SC)nnc1C1CCN(C(=O)N2CCCC2)CC1 | -4.95 |
| Cc1c(NC(=O)NCCO)cccc1OC1CCCC1 | -8.09 |
| O=C(NCCSCc1ccc(Br)s1)C1CCCN(c2cnccn2)C1 (stereo not given) | 10.7 |
| NC(=O)CSc1ccccc1NC(=O)C1CCCCC1 | 28.8 |
| O=C(O)c1cc2c(nc1NCC1CC1)CCN(C1CCOC1)CC2 (stereo not given) | -4.26 |
| CN(Cc1noc(C(C)(C)C)n1)C1CCCN(c2cccnn2)C1 (stereo not given) | 44.8 |
| CC(=O)N1C[C@@H](F)[C@@H](OCc2nc3cc(C)c(C)cc3[nH]2)C1 | -0.883 |
| O=C(c1ncc[nH]1)N1CCC(Cn2cc(-c3cccc(Cl)c3)nn2)CC1 | 20.7 |
| Cc1csc(CNC(=O)Nc2cc(C(F)(F)F)c[nH]c2=O)n1 | -5.01 |
| Cc1nc(CN2CCC(c3ccnn3CCO)CC2)oc1C | 1.65 |
| OCC1(NCc2cnc(-c3ccsc3)s2)CCOCC1 | -6.13 |
| CCSCCNC(=O)c1ccc(S(=O)(=O)N2C[C@@H]3C[C@H]2CN3)cc1 | -4.95 |
| Cn1c(=O)n(C)c2cc(NS(=O)(=O)Cc3ccccc3)ccc21 | -6.3 |

| Compound | cytotoxicity at 70.5 h [%] |
| --- | --- |
| OCCOCc1n[nH]c2c1CN(Cc1ccco1)C2 | 12.9 |
| CCn1nc(C)c2nc(C)nc(NCCc3ccc(C)cc3)c21 | 34.1 |
| Cc1cnn(CCNCc2ccccc2F)c1 | 0.747 |
| CC(C)(C)n1ncc2c1NC(=O)CC2c1c(F)cccc1F (stereo not given) | -14.5 |
| COC(=O)CN1CC2(CCNCC2)COc2ccccc2S1(=O)=O | 6.67 |
| Cc1ccccc1CN1CCC2(COCc3cnc(N(C)C)nc32)C1 (stereo not given) | 0.683 |
| O=C(CCC(F)(F)F)N1CCN(Cc2ccncc2)[C@@H]2CS(=O)(=O)C[C@@H]21 | 24 |
| Cc1noc(C)c1CN(C)C(C)c1cccs1 (stereo not given) | -3.21 |
| Cc1n[nH]c(C)c1CNC(=O)N(Cc1ccccc1)CC(C)(C)O | -3.61 |
| Cc1occc(=O)c1OCc1noc(C(=O)NC2CCCC2)n1 | -16.2 |
| CN(c1ncccc1CNC(=O)c1cscn1)C1CCCCC1 | 0.847 |
| O=C(COc1ccc(C(F)(F)F)cc1)NS(=O)(=O)c1cccnc1 | -3.77 |
| CC(C)N1CC[C@H](c2nc3ccc(C(F)(F)F)cc3[nH]2)C1 | -5.84 |
| O=C([C@@H]1CCCO1)N1CCOCC2(CCN(Cc3cccnc3)C2)C1 (stereo not given in full) | 0.333 |
| c1ccc(-c2nnc3sc(CCN4CCCC4)nn23)cc1 | -5.25 |
| COc1ccc(C(C)(C)C(=O)NCc2n[nH]c(=O)[nH]2)cc1 | -1.62 |
| CCOCC(O)CN1CCN(C(=O)c2ccsc2)CC1 (stereo not given) | 17.1 |
| CCOC(C)c1nc(CN2CCNCC2)cs1 (stereo not given) | 10.9 |
| Cn1c(=O)c2c(n3ncnc13)NC(=O)CC2c1cccc(F)c1 (stereo not given) | -11.8 |
| Cc1nn(-c2ccccn2)c(C)c1[C@@H]1C=C[C@@H](NC(=O)CCC(=O)O)C1 | -6.4 |
| COC(=O)c1ccc(NC(C)c2ccc3c(c2)CC(=O)N3)nn1 (stereo not given) | -10.3 |
| CC(C)N1CC(n2ccnc2-c2nccn2C)CC1=O (stereo not given) | -7.49 |
| CCOc1ccc(CCCC(=O)N2CCC(C(=O)NC)C2)cc1C (stereo not given) | -8.84 |

| Compound | cytotoxicity at 70.5 h [%] |
| --- | --- |
| COC(=O)C(C)Sc1nnnn1C1CCOCC1 (stereo not given) | -5.79 |
| CCOc1cc(CNc2nnn(C)n2)ccc1OCc1ccc(Cl)cc1 | -10.2 |
| Cc1nn(C)c(C)c1CN(C(=O)c1cnc(O)cn1)C(C)C | -2.89 |
| Cc1nn(C)c(Cl)c1CNCc1cccnc1N1CCCCC1 | -2.26 |
| Cc1ccc(-c2nn3c(nc2=O)-c2ccccc2NC3C(=O)O)cc1C (stereo not given) | 3.4 |
| CC(=O)N[C@@H]1CN(C2CCN(c3ccccc3F)CC2)C[C@H]1C(C)C | -10.5 |
| O=C(c1ccc(O)nc1)N1CCN(C(=O)c2ccc(F)c(F)c2)CC1 | -2.92 |
| COc1ccccc1CNc1ncnc2c1NC(=O)CN2 | -6.12 |
| Cc1cc(CN(C)C(=O)c2ccc(Cl)c(N3CCCC3=O)c2)no1 | 28.1 |
| CCc1noc(CS(=O)(=O)C/C=C/c2ccccc2)n1 | -10.8 |
| O=C(NC1CCS(=O)(=O)C1)c1sccc1-c1ccc(F)cc1 (stereo not given) | -7.53 |
| Cn1c(CN2CCCC(c3noc(C4CC4)n3)C2)cc(=O)n(C)c1=O (stereo not given) | -11.3 |
| COC(=O)N1CCc2ccc(NC(=O)c3cn(C)nn3)cc2C1 | -4.27 |
| Cc1cnn(CC2CCCN2C(=O)CCc2c(C)nc(C)[nH]c2=O)c1 (stereo not given) | -10.8 |
| COCCN1C[C@H]2CC[C@@H]1CN(Cc1ccc3ccccc3n1)C2 | -5.95 |
| Cc1ccc(Nc2nccc(C3CN(C(C)C)C3)n2)nc1 | 42.5 |
| CC(c1nc(-c2cccnc2)no1)N(C)CCCOc1ccccc1 (stereo not given) | -3.8 |
| CCNC(=O)C1CCN(c2cc(-c3ccccc3)nc3ccnn23)C1 (stereo not given) | -0.497 |
| Cn1cccc1C(=O)N1CCO[C@@H]2CN(Cc3nccs3)C[C@@H]2C1 | -6.7 |
| CSc1ccc(C)c(C(=O)N2CCCC(n3cncn3)C2)c1 (stereo not given) | -2.61 |
| O=S(=O)(c1ccc(F)cc1F)N1CCCCC1c1nnc2n1CCCC2 (stereo not given) | -12.7 |
| CCc1nnc2n1CCN(Cc1csc(-c3ccc(C)o3)n1)C2 | -33.2 |
| CNc1ncc(C(=O)N2CCCC(Cc3ccccc3OC)C2)s1 (stereo not given) | 20.4 |

| Compound | cytotoxicity at 70.5 h [%] |
| --- | --- |
| Cc1nc(N)ccc1CC1COc2ccccc2C1 (stereo not given) | 15 |
| CC(=O)N(C)c1nc(CN2CCCC2c2cnn(C)c2)cs1 (stereo not given) | 1 |
| CCc1cnc(N)nc1NC(C)c1ccc(C)c(C)c1 (stereo not given) | -0.902 |
| CC(Nc1ncnc2c1NC(=O)CN2)c1ccccn1 (stereo not given) | -13.6 |
| CCc1ccc2nc(NCCOCCO)cc(C)c2c1 | -2.24 |
| O=C(c1ccoc1)N(Cc1ccccn1)C1CC1 | -14.2 |
| COc1cccc(NC(=O)NCC2CCCN(C3CCOCC3)C2)c1 (stereo not given) | -8.3 |
| COc1ccc(C(=O)N2CCCC2c2cnn(C)c2)cn1 (stereo not given) | 9.21 |
| COc1cc(F)ccc1N(C)Cc1ccncc1 | -1.33 |
| Cc1cc(C(O)CCNC(=O)COc2ccccc2F)c(C)o1 (stereo not given) | -0.424 |
| Cc1cc2cc(C(=O)N3CC[C@H](O)[C@]4(CCCO4)C3)ccc2o1 | -18.1 |
| Clc1ccc(C2(CNC3=NCCN3)CCCC2)cc1 | 8.18 |
| CS(=O)(=O)NCc1cc(=O)n2c(n1)CN(Cc1ccco1)CCC2 | -1.24 |
| CCc1noc(C(C)N2CCC(O)CC2)n1 (stereo not given) | -10.2 |
| Cn1cc(NC(=O)CNC(=O)N2CCN(c3ccc(Cl)cc3)CC2)cn1 | -5.62 |
| O=C(NCC1CCCCO1)c1cc(Cn2cnc3ccccc32)[nH]n1 (stereo not given) | -6.38 |
| CCc1cccc(OCCN(C)C(=O)c2ccccc2NCC(=O)O)c1 | -13.6 |
| O=C([C@@H]1C[C@@H]2CCN(c3cccc(F)c3)C[C@H]2O1)N1CCCC1 | 27.2 |
| CCC(O)CN1CCN(C(=O)c2cccn2Cc2cccnc2)CC1 (stereo not given) | 17.3 |
| CC(C)N1CCCC(C(=O)NCCCc2cnn(C)c2)C1 (stereo not given) | 17.4 |
| CC(Cn1cccn1)NCc1ccc(Cl)s1 (stereo not given) | -4.9 |
| CC(=O)N1CCN(C(=O)NC(C)Cn2ccnc2)CC1 (stereo not given) | -0.59 |
| CCn1cnnc1C1CCN(C(=O)c2cnn(C(C)(C)C)c2)CC1 | -5.89 |

| Compound | cytotoxicity at 70.5 h [%] |
| --- | --- |
| CCn1ncc2c1C(COC)CN(S(=O)(=O)N(C)C)C2 (stereo not given) | -10.2 |
| CCc1ccc2c(C3CN(C(C)=O)C3)ncn2c1 | -3.55 |
| CN(Cc1cc(C[C@@H]2C[C@H](N)C2(C)C)no1)c1ccccc1 | -5.24 |
| CC(C)N(C(=O)Cn1nnnc1CCc1ccccc1)C(C)C | 10.7 |
| Cn1cc(C2CCCN2C(=O)CCCOc2ccccc2F)cn1 (stereo not given) | -2.53 |
| Cc1cc(C)n(CCCn2cncc2-c2ccc3c(c2)CC(C)N3C)n1 (stereo not given) | 2 |
| CC(C)n1cc(CN2CCCN(C(=O)c3ccc[nH]3)CC2)cn1 | -5.05 |
| CC1CCN(Cc2cc(=O)[nH]c(=O)[nH]2)CC1 | 8.26 |
| COC(=O)N1CCC(CNC(=O)C2CCN(S(C)(=O)=O)CC2)CC1 | -19.3 |
| O=C(c1cnc2[nH]c(=O)[nH]c(=O)c2c1)N1CCCC1C1CCCC1 (stereo not given) | -11.9 |
| COc1cc(N2CCC3(CCN(C(=O)c4cccnc4)CC3)C2)ncn1 | -6.37 |
| COc1ncc(C2CC(=O)NCc3nc4ccccn4c32)cn1 (stereo not given) | -13.5 |
| Cc1ccc(N2CC[C@@H]3CN(Cc4c[nH]cn4)C[C@@H]3C2)nn1 | 11 |
| CC(C)c1cc(NC(=O)CNC2CCc3ncnn3C2)on1 (stereo not given) | 11.4 |
| CC(C)N(C)Cc1cnc2n1CCN(S(=O)(=O)c1ccccc1)C2 | 15.9 |
| CCC1CN(CC(=O)NC(C)C)CCO1 (stereo not given) | -10.4 |
| N#Cc1ccccc1Cn1cncn1 | 9.79 |
| COC(=O)CC(c1ccc(OC)c(OC)c1OC)c1c(O)n[nH]c1C (stereo not given) | -15.1 |
| O=C(c1ccncc1)N1CCC2(CC1)CCN(C(=O)c1cccnc1)C2 | -7.65 |
| CN(C(=O)COCc1ccccc1)C1CCN(CC2CCOC2)CC1 (stereo not given) | -7.68 |
| CCNC(c1ccc(C)cc1)c1cccnc1 (stereo not given) | 0.38 |
| CCOCC1CN(C(=O)N2CCCC2)Cc2cnn(C)c21 (stereo not given) | -6.47 |
| O=C(NC[C@@H]1CCCO1)c1cc(Br)cnc1N1CCCCC1 | -1.68 |
